Results taken from patent US6465491B2, “6-phenylpyridyl-2-amine derivatives” (Pfizer Inc., priority 1996, dated 2002).
Structures can show the parent of a compound that is named as a salt.

melting point	Structure (SMILES)
176 to 180 °C	Nc1cccc(-c2ccc(CCN3CCC4(CC3)NC(=O)N(CCc3ccccc3)C4=O)cc2)n1 (as salt: hydrochloride) [Example 57, 8-{2-[4-(6-Amino-pyridin-2-yl)-phenyl]-ethyl}-3-phenethyl-1,3,8-triaza-spiro[4.5]decane-2,4-dione]
102 to 104 °C	Nc1cccc(-c2ccc(CCN3CCN(C(=O)Oc4ccccc4)CC3)cc2)n1
130 °C (dec.)	Nc1cccc(-c2ccc(CCNC3CCN(C(=O)Nc4ccccc4)C3)cc2)n1 (stereo not shown) (as salt: hydrochloride) [Example 80, 3-{2-[4-(6-Amino-pyridin-2-yl)-phenyl]-ethylamino}-pyrrolidine-1-carboxylic acid phenylamide]
212 to 215 °C	Nc1cccc(-c2ccc(CCNCCc3ccccc3)cc2)n1 (as salt: hydrochloride) [Example 35, 6-[4-(2-Phenethylamino-ethyl)-phenyl]-pyridin-2-ylamine]
170 °C (dec.)	Nc1cccc(-c2ccc(CCNC3CC4COCC(C3)N4)cc2)n1 (stereo not shown) (as salt: hydrochloride) [107]
211 °C (dec.)	Nc1cccc(-c2ccc(CCN3C4CCC3CC(NC(=O)c3ccccc3)C4)cc2)n1 (stereo not shown) (as salt: hydrochloride)
185 to 187 °C	Nc1cccc(-c2ccc(CCN3CCN(C(=O)C4CCCC4)CC3)cc2)n1 [Example 13, (4-{2-[4-(6-Amino-pyridin-2-yl)-phenyl]-ethyl}-piperazin-1-yl)-cyclopentyl-methanone]
190 °C (dec.)	Nc1cccc(-c2ccc(CCNC3CC4CCC(C3)N4Cc3ccc(F)cc3)cc2)n1 (stereo not shown) (as salt: hydrochloride)
236 to 238 °C	Nc1cccc(-c2ccc(CNCCc3ccccc3)cc2)n1 (as salt: hydrochloride) [Example 135, 6-[4-(Phenethylamino-methyl)-phenyl]-pyridin-2-ylamine]
> 220 °C	Nc1cccc(-c2ccc(CCN3CCN(C4CCc5ccccc5C4)CC3)cc2)n1 (stereo not shown) (as salt: hydrochloride) [Example 55, 6-(4-{2-[4-(1,2,3,4-Tetrahydro-naphthalen-2-yl)-piperazin-1-yl]-ethyl}-phenyl)-pyridin-2-ylamine]
320 to 322 °C	Nc1cccc(-c2ccc(CCNC3CCc4ccccc4C3)cc2)n1 (stereo not shown) (as salt: hydrochloride) [Example 18, 6-{4-[2-(1,2,3,4-Tetrahydro-naphthalen-2-ylamino)-ethyl]-phenyl}-pyridin-2-ylamine]
152 to 154 °C	Nc1cccc(-c2ccc(CCN3CCN(C(=O)c4ccco4)CC3)cc2)n1 [Example 7, (4-{2-[4-(6-Amino-pyridin-2-yl)-phenyl]-ethyl}-piperazin-1-yl)-furan-2-yl-methanone]
182 to 184 °C	COc1ccc(NC(=O)N2CCN(CCc3ccc(-c4cccc(N)n4)cc3)CC2)cc1 [Example 31, 4-{2-[4-(6-Amino-pyridin-2-yl)-phenyl]-ethyl}-piperazine-1-carboxylic acid (4-methoxy-phenyl)-amide]
185 to 187 °C	Nc1cccc(-c2ccc(CNC3Cc4ccccc4C3)cc2)n1 (as salt: hydrochloride) [Example 139, 6-[4-(Indan-2-ylaminomethyl)-phenyl]-pyridin-2-ylamine]
200 to 220 °C (dec.)	Nc1cccc(-c2ccc(CCNC34CC5CC(CC(C5)C3)C4)cc2)n1 (as salt: hydrochloride) [Example 115, 6-{4-[2-(Adamantan-1-ylamino)-ethyl]-phenyl}-pyridin-2-ylamine]
160 to 163 °C	Cl.Nc1cccc(-c2ccc(CCN3CC4C(C3)C4NCCCc3ccccc3)cc2)n1 (stereo not shown)

melting point	Structure (SMILES)
125 to 140 °C	Nc1cccc(-c2ccc(CCCN3CCN(CCc4ccccc4)CC3)cc2)n1 (as salt: hydrochloride) [Example 129, 6-{4-[3-(4-Phenethyl-piperazin-1-yl)-propyl]-phenyl}-pyridin-2-ylamine]
175 °C (dec.)	Nc1cccc(-c2ccc(CCN3CCC(C(c4ccccc4)c4ccccc4)CC3)cc2)n1 (as salt: hydrochloride) [Example 90, 6-{4-[2-(4-Benzhydryl-piperidin-1-yl)-ethyl]-phenyl}-pyridin-2-ylamine]
185 to 187 °C	Nc1cccc(-c2ccc(CCN3CCN(c4nnnn4-c4ccc(F)cc4)CC3)cc2)n1 [Example 48, 6-[4-(2-{4-[1-(4-Fluoro-phenyl)-1H-tetrazol-5-yl]-piperazin-1-yl}-ethyl)-phenyl]-pyridin-2-ylamine]
198 °C (dec.)	Nc1cccc(-c2ccc(CCNC3CC4CCC(C3)N4Cc3ccc(Cl)cc3)cc2)n1 (stereo not shown) (as salt: hydrochloride)
> 240 °C (dec.)	Nc1cccc(-c2ccc(CCN3CCC(N)(C(=O)NCc4ccccc4)CC3)cc2)n1 (as salt: hydrochloride) [Example 59, 4-Amino-1{-2-[4-(6-amino-pyridin-2-yl)-phenyl]-ethyl}-piperidine-4-carboxylic acid benzylamide]
127 to 130 °C	Nc1cccc(-c2ccc(CCN3CCN(C(=O)COc4ccccc4)CC3)cc2)n1
158 to 160 °C	Cc1cccc(N2CCN(CCc3ccc(-c4cccc(N)n4)cc3)CC2)c1 [Example 8, 6-{4-[2-(4-m-Tolyl-piperazin-1-yl)-ethyl]-phenyl}-pyridin-2-ylamine]
100 °C (dec.)	Nc1cccc(-c2ccc(CCN3CCC(c4ccccc4)C3)cc2)n1 (stereo not shown) (as salt: hydrochloride) [Example 26, 6-{4-[2-(3-Phenyl-pyrrolidin-1-yl)-ethyl]-phenyl}-pyridin-2-ylamine]
60 to 70 °C (dec.)	Nc1cccc(-c2ccc(CCNC3Cc4ccccc4C3)cc2)n1 (as salt: hydrochloride) [Example 117, 6-{4-[2-(Indan-2-ylamino)-ethyl]-phenyl}-pyridin-2-ylamine]
165 °C (dec.)	Nc1cccc(-c2ccc(CCN3CC4C(C3)C4NCCc3ccccc3)cc2)n1 (stereo not shown) (as salt: hydrochloride) [Example 46, (3-{2-[4-(6-Amino-pyridin-2-yl)-phenyl]-ethyl}-3-aza-bicyclo[3.1.0]hex-6-yl)-phenethyl-amine]
> 300 °C	Nc1cccc(-c2ccc(CCN3C4CCC3CC(N)C4)cc2)n1 (stereo not shown) (as salt: hydrochloride)
120 °C (dec.)	Nc1cccc(-c2ccc(CCN3CCC(NC(=O)NC4CCCCC4)C3)cc2)n1 (stereo not shown) (as salt: hydrochloride) [Example 74, 1-(1-{2-[4-(6-Amino-pyridin-2-yl)-phenyl]-ethyl}-pyrrolidin-3-yl)-3-cyclohexyl-urea]
212 to 214 °C	Nc1cccc(-c2ccc(CCN3CCN(c4nnnn4-c4ccccc4)CC3)cc2)n1 [Example 27, 6-(4-{2-[4-(1 -Phenyl-1H-tetrazol-5-yl)-piperazin-1-yl]-ethyl}-phenyl)-pyridin-2-ylamine]
120 °C (dec.)	Nc1cccc(-c2cccc(CCN3CCN(CCc4ccccc4)CC3)c2)n1 (as salt: hydrochloride) [Example 130, 6-{3-[2-(4-Phenethyl-piperazin-1-yl)-ethyl]-phenyl}-pyridin-2-ylamine]
75 to 85 °C	Nc1cccc(-c2ccc(CCN(CC3CCCCC3)CC3CCCCC3)cc2)n1 (as salt: salt) [Example 124, 6-{4-[2-(Bis-cyclohexylmethyl-amino)-ethyl]-phenyl}-pyridin-2-ylamine]
